Data published in EP1955072B1, “FLEXIBLE CARBOHYDRATE-BEARING POLYMER” (PreciSense A/S, priority 2005, dated 2007).

What was measured:
[1] = biological target: T1, biotinylated MBL (Mannan Binding Lectin) (Homo sapiens, UniProt P11226); assay: ELLA (Enzyme Linked Lectin Assay), glucose inhibition of MBL binding to coated antigen, Examples C3/C5; conditions: glucose as inhibitor, 1.25 mM CaCl2, value only valid for this particular assay
Experimental: The wells were then washed (2 x 200 µl TBS).
Plates were then emptied and washed (3 x 200 µl TBS). […] The results are shown in the graphs in Fig. 1. High absorptions correspond to binding of MBL to the ligand. Baseline absorption corresponds to no binding of MBL to the ligand. […] Therefore, in an optimization step (Example C4) a range of mannose co-polymers having mannose monomer unit contents within the range of 30 % to 50 % were synthesized.
An ELLA assay was carried out as described in Example C3. […] From the inhibition curves, it is possible to calculate an IC50 value for aminodextran and the optimized ligand (Table 6). (The IC50 value is only valid for this particular assay.) TABLE 6

[2] = biological target: T1, biotinylated MBL (Mannan Binding Lectin); assay: ELLA (Enzyme Linked Lectin Assay), glucose inhibition of MBL binding to coated antigen, Examples A8/A8a
Experimental: Biotinylated MBL was prepared as follows. Biotin-NHS (20 µl, 7 mg/ml in DMSO, -10-15 eq. per MBL monomer) was added to a solution of MBL (3 ml, 0.53 mg) in PBS (3 mL). The solution was gently stirred for 2 h, then transferred to a dialysis tube (MWCO 10-12K) and dialysed against TBS (2 × 1 L) over the course of 24 h. The resulting biotinylated MBL (0.2 mg/ml) in TBS was used without further purification.
The wells were then washed (2x200 µl PBS). ConA-HRP 1% (w/v)(100 µl) in PBS was added and incubated for 1 h. Plates were then emptied and washed (3x200 µl PBS). […] The wells were then washed (2x200 µl TBS). […] Plates were then emptied and washed (3x200 µl TBS).

T1 sequence (P11226 21-248): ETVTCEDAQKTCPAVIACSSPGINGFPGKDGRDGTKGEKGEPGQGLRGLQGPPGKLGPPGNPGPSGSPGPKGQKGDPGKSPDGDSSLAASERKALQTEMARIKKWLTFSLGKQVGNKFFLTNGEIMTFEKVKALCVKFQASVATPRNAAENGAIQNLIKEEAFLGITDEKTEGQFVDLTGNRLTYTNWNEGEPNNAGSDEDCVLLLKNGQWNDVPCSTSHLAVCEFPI

- IC50 ([1]; coated antigen: 35 mol% Man Copolymer): 13 mM
- IC50 ([1]; coated antigen: Aminodextran): 23 mM
- IC50 ([2]; coated antigen: AmDex 150K (aminodextran), dilutions of glucose 100 mM to 0 mM, read-out: MBL affinity (IC50) or Abs(0 mM Glc)): 9.7 mM
- IC50 ([2]; coated antigen: Polymer of Example A4a, dilutions of glucose 100 mM to 0 mM, read-out: MBL affinity (IC50) or Abs (0 mM Glc)): 50 to 80 mM
- IC50 ([2]; glucose inhibiting MBL binding to plate coated with 40 mol% mannose polymer of Example A4 (Example A8), TBS, 1.25 mM CaCl2, pH 7.4, read-out: IC50): 16.8 mM
- IC50 ([2]; glucose inhibiting MBL binding to plate coated with 80 mol% mannose polymer of Example A4a, TBS, 1.25 mM CaCl2, pH 7.4, read-out: IC50): 50 to 80 mM
Structure (SMILES): OC[C@H]1OC(O)[C@H](O)[C@@H](O)[C@@H]1O (stereo partly drawn) [glucose]
